Drawing on US10738053B2, “Bicyclic compounds as dual ATX/CA inhibitors” (Hoffmann-La Roche Inc., priority 2015, dated 2020), this text covers IC50 for 6 molecules.

Structures are written as SMILES.

The target of one assay is human ATX (Homo sapiens (Human), UniProt Q13822). In words: Human ATX enzyme inhibition assay (fluorescence quenching, MR121 substrate). The format is biochemical. As to conditions: human His-tagged ATX 30 nM, MR121 substrate 1 μM. As for the experimental part:
Production of Human Full Length ATX, with and without His Tag
Autotaxin (ATX-ENPP2) cloning: cDNA was prepared from commercial human hematopoietic cells total RNA and used as template in overlapping PCR to generate a full length human ENPP2 ORF with or without a 3′-6× His tag. These full length inserts were cloned into the pcDNA3.1V5-His TOPO (Invitrogen) vector. The DNA sequences of several single clones were verified. The DNA from a correct full length clone was used to transfect Hek293 cells for verification of protein expression. The sequence of the encoded ENPP2 conforms to Swissprot entry Q13822, with or without the additional C-terminal 6× His tag.
ATX Fermentation: Recombinant protein was produced by large-scale transient transfection in 20 L controlled stirred tank bioreactors (Sartorius). During cell growth and transfection, temperature, stirrer speed, pH and dissolved oxygen concentration were maintained at 37° C., 120 rpm, 7.1 and 30% DO, respectively. FreeStyle 293-F cells (Invitrogen) were cultivated in suspension in FreeStyle 293 medium (Invitrogen) and transfected at ca. 1-1.5×10E6 cells/mL with above plasmid DNAs using X-tremeGENE Ro-1539 (commercial product, Roche Diagnostics) as complexing agent. Cells were fed a concentrated nutrient solution (J Immunol Methods 194 (1996), 19, 1-199 (page 193)) and induced by sodium butyrate (2 mM) at 72 h post-transfection and harvested at 96 h post-transfection. Expression was analyzed by Western Blot, enzymatic assay and/or analytical IMAC chromatography. After cooling the cell suspension to 4° C. in a flow-through heat exchanger, cell separation and sterile filtration of supernatant was performed by filtration through Zeta Plus 60M02 E16 (Cuno) and Sartopore 2 XLG (Sartorius) filter units. The supernatant was stored at 4° C. prior to purification.
ATX Purification: 20 liter of culture supernatant were conditioned for ultrafiltration by adding Brij 35 to a final concentration of 0.02% and by adjusting the pH to 7.0 using 1 M HCl. Then the supernatant was first microfiltred through a 0.2 µm Ultran-Pilot Open Channel PES filter (Whatman) and afterwards concentrated to 1 liter through an Ultran-Pilot Screen Channel PES filter with 30 kDa MWCO (Whatman). Prior to IMAC chromatography, NiSO4 was added to a final concentration of 1 mM. […] The column was washed stepwise with the same buffer containing 20 mM, 40 mM and 50 mM imidazole, respectively. The protein was subsequently eluted using a linear gradient to 0.5 M imidazole in 15 column volumes. ATX containing fractions were pooled and concentrated using an Amicon cell equipped with a 30 kDa PES filter membrane. […] Final yield of protein after purification was 5-10 mg ATX per liter of culture supernatant. The protein was stored at −80° C.
Human ATX Enzyme Inhibition Assay
Test compounds (10 mM stock in DMSO, 8 μL) were obtained in 384 well sample plates (Corning Costar #3655) and diluted with 8 μL DMSO. […] Then, 15 μL of 41.7 nM ATX solution was added (30 nM final concentration), mixed five times and then incubated for 15 minutes at 30° C. 10 μL of MR121 substrate solution was added (1 μM final concentration), mixed 30 times and then incubated for 15 minutes at 30° C.

The target of assay [1] is Human carbonic anhydrase II (hCA-II) (Homo sapiens (Human), UniProt P00918). Briefly: Human carbonic anhydrase-II inhibition assay (absorbance, 4-NPA substrate). As to conditions: hCA II 8 nM, 4-NPA 2.5 mM, absorbance 340 nm; read-out: CA-II IC50. The format is biochemical. As for the experimental part: Human Carbonic Anhydrase-II Inhibition Assay
Then 30 μL of 16 nM hCA II solution was added (8 nM final concentration), mixed five times. 30 μL of 4-NPA substrate solution was added (2.5 mM final concentration), mixed five times.

For orientation: IC50 means the point on the concentration scale where inhibition reaches its midpoint.

Consider `CO[C@@]12CN(C(=O)OCc3ncc(C(F)(F)F)cc3NC(=O)C(C)(C)C)C[C@H]1CN(C(=O)c1ccc(S(N)(=O)=O)cc1)C2` (single isomer, unassigned) [Example 4.03, (−) trans-5-(4-sulfamoyl-benzoyl)-3a-methoxy-hexahydro-pyrrolo[3,4-c]pyrrole-2-carboxylic acid 3-(2,2-dimethyl-propionylamino)-5-trifluoromethyl-pyridin-2-ylmethyl ester], for which the IC50 amounted to 11 nM against human ATX and 13 nM in assay [1].

Turning to `CO[C@@]12CN(C(=O)OCc3ccc(OC(F)(F)F)cc3)C[C@H]1CN(C(=O)c1ccc(S(N)(=O)=O)cc1)C2` (single isomer, unassigned) [Example 5.01, (+)-trans-5-(4-sulfamoyl-benzoyl)-3a-methoxy-hexahydro-pyrrolo[3,4-c]pyrrole-2-carboxylic acid 4-trifluoromethoxy-benzyl ester], the IC50 at human ATX was found to be 6 nM; in assay [1] it was 27 nM.

`NS(=O)(=O)c1ccc(C(=O)N2C[C@@H]3CN(C(=O)OCc4ccc(OC(F)(F)F)cc4)C[C@@]3(F)C2)cc1` (single isomer, unassigned) [Example 5.02, (+)-trans-5-(4-sulfamoyl-benzoyl)-3a-fluoro-hexahydro-pyrrolo[3,4-c]pyrrole-2-carboxylic acid 4-trifluoromethoxy-benzyl ester]: the results for the IC50 (at human ATX; in assay [1]) were 4 nM and 15 nM, respectively.

Turning to `CO[C@@]12CN(C(=O)OCc3ncc(C(F)(F)F)cc3NC(=O)C(C)(C)C)C[C@H]1CN(C(=O)c1ccc(S(N)(=O)=O)cc1)C2` (single isomer, unassigned) [Example 5.03, (+)-trans-5-(4-sulfamoyl-benzoyl)-3a-methoxy-hexahydro-pyrrolo[3,4-c]pyrrole-2-carboxylic acid 3-(2,2-dimethyl-propionylamino)-5-trifluoromethyl-pyridin-2-ylmethyl ester], the IC50 at human ATX was determined as 13 nM; in assay [1] it was 20 nM.

Turning to `C[C@@]12CN(C(=O)OCc3ccc(OC(F)(F)F)cc3)C[C@H]1CN(C(=O)c1ccc(S(N)(=O)=O)cc1)C2` [Example 4.00, (+)-(3aR,6aR)-3a-Methyl-5-(4-sulfamoyl-benzoyl)-hexahydro-pyrrolo[3,4-c]pyrrole-2-carboxylic acid 4-trifluoromethoxy-benzyl ester], the IC50 stood at 6 nM against human ATX and 95 nM in assay [1].

For the molecule `C[C@]12CN(C(=O)OCc3ccc(OC(F)(F)F)cc3)C[C@@H]1CN(C(=O)c1ccc(S(N)(=O)=O)cc1)C2` [Example 5.00, (−)-(3aS,6aS)-3a-methyl-5-(4-sulfamoylbenzoyl)-hexahydro-pyrrolo[3,4-c]pyrrole-2-carboxylic acid 4-trifluoromethoxy-benzyl ester], the results for the IC50 (at human ATX; in assay [1]) were 7 nM and 38 nM, respectively.
